This note sets out measurements from patent US20240108623A1, “METHODS OF TREATING CANCER WITH POZIOTINIB” (BOARD OF REGENTS, THE UNIVERSITY OF TEXAS SYSTEM, priority 2021, published 2024).

Each structure is given as a SMILES string.

In assay [1] the test system is lung adenocarcinomas harboring EGFR L858R mutations, acquired L718V mutation. The assay can be described thus: Case study of patient treated with second-generation TKI. It is filed as in vivo, human. To be noted: acquired L718V after first-line osimertinib. The source says:
Case studies of patients treated with second-generation TKIs. Patients were consented under the GEMINI protocol (PA13-0589) which was approved in accordance with the MD Anderson Institutional Review Board.

The subject of assay [2] is PDXs harboring EGFR S768dupSVD exon 20 loop insertion mutation. The assay can be described thus: PDX tumor growth. To be noted: drug 5 days per week, day 21. It is filed as in vivo, mice.
The target in a further assay is T1, EGFR R776H (Homo sapiens, UniProt P00533, R776H).
T1 construct: host or cells: Ba/F3 (retroviral transduction, pBabe-Puro based vectors)
The assay can be described thus: Ba/F3 cell drug screening, Cell Titer Glo. To be noted: Ba/F3 cells expressing EGFR R776H; 72 hours. It counts as cell-based. A digest of the protocol:
(§1)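 Mutant EGFR-driven Ba/F3 cells, maintained in 1 ng/ml EGF, are treated 72 h with a seven-concentration TKI series. Viability is read by CellTiter-Glo, and IC50 derived by variable-slope regression.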
In general terms: In ATP-based viability assays light output follows the ATP content of the culture.

A further assay addresses T2, EGFR Ex19del G724S (Homo sapiens, UniProt P00533, DEL746-750/G724S).
T2 construct: expressed in transfected cells; host or cells: Ba/F3 (retroviral transduction, pBabe-Puro based vectors)
The assay can be described thus: Ba/F3 cell drug screening, Cell Titer Glo. It is filed as cell-based. To be noted: Ba/F3 cells expressing EGFR Ex19del G724S; 72 hours. The method, boiled down:
as §1

Another assay deals with T3, EGFR E709_T710del insD (Homo sapiens, UniProt P00533, DEL709-709/T710D).
T3 construct: expressed in transfected cells; host or cells: Ba/F3 (retroviral transduction, pBabe-Puro based vectors)
As to the kind of experiment: Ba/F3 cell drug screening, Cell Titer Glo. It is filed as cell-based. To be noted: Ba/F3 cells expressing EGFR E709_T710del insD; 72 hours. The method, boiled down:
as §1

Assay [3] relates to PDXs with G719A mutations. The assay can be described thus: PDX tumor growth. It counts as in vivo, mice. To be noted: 2.5 mg/kg poziotinib; 5 mg/kg and 20 mg/kg osimertinib; five days per week, day 28.

`C=CC(=O)N1CCC(Oc2cc3c(Nc4ccc(Cl)c(Cl)c4F)ncnc3cc2OC)CC1` [Poziotinib]: the “clinical outcome of patient” value in assay [1] is “clinical benefit of stable disease and tumor shrinkage”. The “sensitivity of Ex20ins mutations in vivo” value in assay [2] was “sensitive”. Moreover, the “Response of Cells Comprising PACC EGFR Mutations to Second-Generation TKIs” value is listed as 0.01644 on EGFR R776H, 0.4952 on EGFR Ex19del G724S and 0.06231 at EGFR E709_T710del insD. Also, in assay [3], the “sensitivity of mice harboring PDXs with G719A mutations” value is “most sensitive”.
